Consider 8 compounds from patent publication US9611248B2, “Chemical compounds” (Syngenta Participations AG, priority 2013, dated 2017).

The assay deals with a variety of test species. The experiment in a line: Post-emergence herbicidal activity. In kind it is in vivo. Also noted: key to ABUTH (Abutilon theophrasti) damage score / AMARE (Amaranthus retroflexus) damage score / ALOMY (Alopecurus myosuroides) damage score / ECHCG (Echinochloa crus-galli) damage score / ZEAMX (Zea mays) damage score / SOLNI (Solanum nigrum) damage score: 0 = no damage to plant, 5 = total damage to plant. The note with it: rate 1000 g/ha, evaluated after 13 days. The essentials:
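Plants grown for 8 days in pots were sprayed post-emergence with compound in acetone/water (50:50) containing 0.5% Tween 20. They were kept in a glasshouse at 24/16 °C day/night, 14 h light, 65% humidity, watered twice daily. Damage was scored after 13 days (0 none to 5 total).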
With `COC1=C(C)C(=O)N(c2cc(C(F)(F)F)c(SC)cn2)C1O` (stereo not drawn) [AD14, 2-hydroxy-3-methoxy-4-methyl-1-[5-methylsulfanyl-4-(trifluoromethyl)-2-pyridyl]-2H-pyrrol-5-one], the “ABUTH (Abutilon theophrasti) damage score” value (shortened to “ABUTH”) was 5, the “ALOMY (Alopecurus myosuroides) damage score” value (shortened to “ALOMY”) was found to be 3, the “AMARE (Amaranthus retroflexus) damage score” value (“AMARE” below) is on record as 4 and the “ECHCG (Echinochloa crus-galli) damage score” value (from here on “ECHCG”) was 5. Also, the “SETFA (Setaria faberi) damage score” value amounted to 5 and the “ZEAMX (Zea mays) damage score” value stood at 1.
In the case of `CCc1cc(N2C(=O)C(C)=C(OC)C2O)ncc1-c1ccc(C)c([N+](=O)[O-])c1` (stereo not drawn) [AD103], the “ABUTH” value is recorded as 4, the “ALOMY” value was 3, the “AMARE” value came to 5 and the “ECHCG” value is recorded as 4. The “SETFA (Setaria faberi) damage score” value worked out at 4 and the “ZEAMX (Zea mays) damage score” value came out at 1.
For `COC1=C(C)C(=O)N(c2cc(C(F)(F)F)c(OC)cn2)C1O` (stereo not drawn) [AD10, 2-hydroxy-3-methoxy-1-[5-methoxy-4-(trifluoromethyl)-2-pyridyl]-4-methyl-2H-pyrrol-5-one], the “ABUTH” value came to 5, the “ALOMY” value came to 5, the “AMARE” value is 5 and the “ECHCG” value worked out at 5. In addition, the “SETFA (Setaria faberi) damage score” value came out at 5 and the “ZEAMX (Zea mays) damage score” value amounted to 2.
Turning to `COC1=C(C)C(=O)N(c2cc(Cl)c(-c3ccsc3)cn2)C1O` (stereo not drawn) [AD134], the “ABUTH” value came to 3, the “ALOMY” value was 1, the “AMARE” value worked out at 5 and the “ECHCG” value amounted to 2. Besides, the “SETFA (Setaria faberi) damage score” value came to 5 and the “ZEAMX (Zea mays) damage score” value came out at 1.
Regarding `COC1=C(Cl)C(O)N(c2cc(C(C)(F)F)ccn2)C1=O` (stereo not drawn) [AF3], the “ABUTH” value amounted to 5, the “ALOMY” value is given as 3, the “AMARE” value came out at 5 and the “ECHCG” value amounted to 5. In addition, the “SETFA (Setaria faberi) damage score” value is 5 and the “ZEAMX (Zea mays) damage score” value amounted to 1.
With `COC1=C(C)C(=O)N(c2cc(C(C)(C)C)ncn2)C1O` (racemic) [CD3], the “ABUTH” value turned out to be 5, the “ALOMY” value worked out at 5, the “AMARE” value was 5 and the “ECHCG” value was 5. For the same compound, the “SETFA (Setaria faberi) damage score” value was found to be 5 and the “ZEAMX (Zea mays) damage score” value came to 3.
`CC1=C(Cl)C(O)N(c2cc(C(C)C)c(C(=O)OC(C)C)cn2)C1=O` (stereo not drawn) [AA9]: the “ABUTH” value stood at 4, the “ALOMY” value is given as 2, the “AMARE” value amounted to 4 and the “ECHCG” value was determined as 1. Also, the “SETFA (Setaria faberi) damage score” value was determined as 1 and the “ZEAMX (Zea mays) damage score” value is 1.
For `CC1=C(Cl)C(O)N(c2ccc(Cl)cn2)C1=O` (stereo not drawn) [AA32], the “ALOMY” value stood at 0, the “AMARE” value was found to be 0, the “ECHCG” value came to 0 and the “SETFA (Setaria faberi) damage score” value was 2. In addition, the “SOLNI (Solanum nigrum) damage score” value came out at 2 and the “ZEAMX (Zea mays) damage score” value was found to be 0.
